Results on 5 molecules are retold here after patent publication US20230128972A1, “Anat Inhibitors and Methods of Use Thereof” (Atomwise Inc., priority 2020, published 2023).

In this test the target is T1, aspartate N-acetyltransferase (ANAT) (Homo sapiens, UniProt Q8N9F0).
T1 construct: 6xHis (C); made in house; host or cells: E. coli BL21(DE3)
T1 sequence (Q8N9F0 1-302): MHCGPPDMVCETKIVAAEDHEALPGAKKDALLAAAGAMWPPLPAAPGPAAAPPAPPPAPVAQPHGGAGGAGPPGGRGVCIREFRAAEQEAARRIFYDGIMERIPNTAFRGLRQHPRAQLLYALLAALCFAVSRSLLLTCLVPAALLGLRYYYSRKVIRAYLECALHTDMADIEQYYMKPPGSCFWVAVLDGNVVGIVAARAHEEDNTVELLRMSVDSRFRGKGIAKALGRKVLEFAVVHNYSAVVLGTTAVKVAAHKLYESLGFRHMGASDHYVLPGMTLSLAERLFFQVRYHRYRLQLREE
In words: ANAT in vitro activity assay (DTNB, coenzyme A production). It counts as biochemical. The settings on record: for Ki: dose-response protocol, competitive inhibition fit, Km for L-aspartate 160 μM; for potency against ANAT: dose-response protocols, in words. The method, then: The experimental assay was based on a custom protocol developed by the Viola lab described previously (see, e.g., Thangavelu et al., 2017, “Design and optimization of aspartate N-acetyltransferase inhibitors for the potential treatment of Canavan disease,” Bioorganic & Medicinal Chemistry, 25(3), pp. 870-885). Each of the purchased compounds was tested in an initial screen at 1 mM, followed by a second screen of the initial inhibitors at 50 μM.
The challenge of solubilizing and purifying the membrane-associated enzyme ANAT has been addressed through the creation of a fusion construct with maltose binding protein (MBP) as a fusion partner, as described previously. Briefly, aspartate ANAT was expressed with an N-terminal MBP tag in E. coli BL21(DE3) cells. A 6×His-tag was inserted at the C-terminal of the enzyme to facilitate purification. 20 ml LB media was grown overnight from a single colony in the presence of kanamycin at a final concentration of 50 μg/ml at 37° C. The overnight culture was then diluted into 2 L LB media and grown with shaking at 37° C. until the OD600 reached 0.6. Isopropyl β-D-thiogalactopyranoside (IPTG) was then added at a final concentration of 0.1 mM for induction, and cell growth continued at 16° C. for 16-20 hours. The cell culture was harvested by centrifugation at 11,000 rpm for 15 min. The cells were then resuspended in binding buffer consisting of 20 mM potassium phosphate, pH 7.4, 300 mM NaCl, 20 mM imidazole, and 10% glycerol. The cells were lysed by adding lysozyme (50 μg/ml of buffer) and DNAse (5 μg/ml of buffer) in an ultrasonic dismembrator, followed by clarification of the cells by centrifugation at 11,000 rpm to remove the insoluble cell debris. The clarified supernatant was loaded onto a Ni-NTA column and eluted with a 20-300 mM imidazole gradient in the binding buffer using an AKTA chromatography system. The fractions containing active enzyme purified from the Ni-NTA column were pooled and loaded onto a dextrin-Sepharose column for further purification. The MBP-ANAT fusion enzyme was eluted from this column by using a 0-10 mM maltose gradient. SDS-PAGE gel was run to confirm the molecular weight and purity of the enzyme.
ANAT activity was measured by monitoring the production of coenzyme A using 5,5′-dithio-bis-[2-nitrobenzoic acid] (DTNB). […] The increasing absorption at 412 nm was monitored for up to 30 min during the reaction. 10% DMSO was maintained in the first screen while 20% DMSO was used in the second screen to dissolve the insoluble or partially soluble compounds in the assay wells.
Ki was calculated using the competitive inhibition routine within the nonlinear regression module of GraphPad Prism 8.3.0 with the following equation: […]
where Km for L-aspartate was set to 160 μM, and [I] and [S] denote the concentrations of the inhibitor and substrate, respectively.

In the case of `Nc1cc(N)nc(SCc2ncc(-c3ccc(F)cc3)o2)n1` [Formula 1, 2-{[5-(p-Fluorophenyl)-1,3-oxazol-2-yl]methylthio}-4,6-pyrimidinediamine], the Ki worked out at 8.2 µM and the “potency against ANAT” value is “low-micromolar”.

As for `CCOC(=O)c1sc(NC(=O)COC(=O)Cn2c(=O)cnc3ccccc32)cc1C` [Formula 2, Ethyl 3-methyl-5-{2-[(2-oxo-1H-quinoxalin-1-yl)acetoxy]acetylamino}-2-thenoate], the Ki is 8.5 µM and the “potency against ANAT” value is on record as “low-micromolar”.

On to `Cc1nnc(SCc2nnc(-c3c(-c4ccccc4)noc3C)o2)s1` [Formula 3, 5-(5-Methyl-3-phenyl-4-isoxazolyl)-2-[(5-methyl-1,3,4-thiadiazol-2-ylthio)methyl]-1,3,4-oxadiazole], for which the inhibition constant Ki was found to be 9.1 µM and the “potency against ANAT” value is recorded as “low-micromolar”.

Regarding `Cc1c(C(=O)O)sc2[nH]c(=O)cc(CSc3nnc(C4CC4)[nH]3)c12` [Formula 4, 4-[(5-Cyclopropyl-4H-1,2,4-triazol-3-ylthio)methyl]-3-methyl-6-oxo-1-thia-7-aza-7H-indene-2-carboxylic acid], the inhibitory constant (Ki) stood at 4.5 µM and the “potency against ANAT” value is listed as “low-micromolar”.

As to `O=C(OCCSc1ccc([N+](=O)[O-])c2nonc12)c1ccc(Cl)cc1Cl` [Formula 5, 2-(7-Nitro-2,1,3-benzofurazan-4-ylthio)ethyl 2,4-dichlorobenzoate], the affinity, expressed as Ki, was 0.91 µM and the “potency against ANAT” value is given as “low-micromolar”.

What is called Ki is a dissociation constant, usually derived from enzyme kinetics or from competition with a known ligand. The low end stands for a stronger hold on the target, the high end for a looser hold on the target.
